Data reported in PMC11062894, “Protein-based bandpass filters for controlling cellular signaling with chemical inputs” (Nature Chemical Biology, 2023).

Tested on: GEMS receptors with CBPA11 (BclXL–LD3 and BclXLhigh variants), STAT3-driven SEAP in HEK293T cells
Experiment: GEMS SEAP reporter assay, CBPA11 (BclXLhigh, LD3-v and BclXL-v variants) with A-1155463
Type: cell-based
Parameters: key to Raw data (SEAP) / SEAP, replicate values / Raw data of Figure 5b / Raw data Figure 5e / Raw data of Independent repeat of CBPA11-v1 vs CBPA11-v1-LD3v3 / Raw data of Independent repeat of CBPA11-v3 vs CBPA11-v3-LD3v3 / Raw data of Figure 5b, CBPA11-v1-LD3v3 (SEAP reporter raw value, single replicate) / Raw data of Figure 5b, CBPA11-v1 (SEAP reporter raw value, single replicate): SEAP activity in U/L in culture supernatant
From the text: To rationally design a CBP responding to a chemical input, we used BclXL as the druglow receptor, LD3 as the designed binder and a designed BclXL variant as the drughigh receptor (referred to as BclXLhigh) to construct a CBP responsive to BclXL inhibitors (Fig. 4a). To design BclXLhigh, we used a multistate design computational protocol described elsewhere[26] […] Thus, BclXLhigh-v(1–3) were chosen as the functional drughigh receptors, resulting in three A-1155463-controlled CBPs (referred to as CBPA11-v(1–3)) (Fig. 4c–e).
HEK293T cells were seeded in a 96-well plate 24 h before transfection. The transfection mix in each well consisted of 3 ng of constitutive human CMV promoter driven mammalian STAT3 expression vector (PhCMV-STAT3-pA), 30 ng of STAT3-induced reporter expression (OStat3-PhCMVmin-SEAP-pA) and 50 ng of expression vectors for each GEMS receptor chain (PSV40-IgK-(drughigh receptor)-EpoRm-IL-6RBm-pA and PSV40-IgK-(druglow receptor-GGGGSX3-LD3)-EpoRm-IL-6RBm-pA). For the specific drughigh receptor and druglow receptor used in the different cellular assays, they are indicated as wild type or with mutations. Then, plasmid DNA was mixed with 50 μl opti-MEM (Thermo Fisher) and 600 ng of polyethyleneimine (Polysciences, catalog no. 24765-1). For drug treatment experiments, drugs were added 12 h post-transfection and incubated with cells for 24 h before the SEAP reporter detection assay.
SEAP activity (U l^−1) in cell culture supernatants was quantified by kinetic measurements at 405 nm (1 minute per measurement for 30 cycles) of absorbance increase due to phosphatase-mediated hydrolysis of para-nitrophenyl phosphate (pNPP).
Binding affinities of SPR drug competition assays were calculated using three-parameter nonlinear regression in GraphPad Prism (v.8.3.0). Representative data of cell assays are presented as individual values and mean values (bars). n = 3 refers to biological replicates. All IC50 or EC50 values of cell assays reported were calculated using four-parameter nonlinear regression ± s.d. Bandpass features of cutoff concentrations and Bandwidth90% were estimated based on the curve fitted using bell-shaped curve nonlinear regression in GraphPad Prism (v.8.3.0). […]
Supplementary Figure 4: Design, screening and validation of BclXLhigh variants. a) Screening of BclXLhigh variants in the GEMS platform. […]
Dissociation constant measurement of BclXLhigh-v(1-3) and LD3. Equilibrium curves are fitted using […]
BclXLhigh-v1 (purple), BclXLhigh-v2 (blue), […]
a) Bcl2high-based bandpass filter designs were developed and to respond to different concentrations of […]
corresponding inhibitor. c) Screening of Bcl2high-based bandpass filter variants in the GEMS platform.
The designed binder LD3 was fused to the druglow-receptor (PSV40-IgK-Bcl2-LD3-EpoRm-IL-6RBm-pA) in one EpoR chain and Bcl2high variants with the insensitive Bcl2 (iBcl2) as control in the other EpoR chain (PSV40-IgK-Bcl2high-EpoRm-IL-6RBm-pA). HEK293T cells were transfected with indicated […]
the mean of six biological replicates ± s.d., overlaid with a scatter dot plot of the original data points.
(1 picture or pasted object on this page, not shown here)
Supplementary Figure 6: Binding affinities and drug resistances of Bcl2high-v(2,4,5) assessed by […]
a) Measurement of dissociation constants for Bcl2high-v(2,4,5) and LD3 interactions. Equilibrium curves […]
Bcl2high-v(2,4,5) measured by SPR. 5 μM of Bcl2 or indicated variants were mixed with 10 μM of […]
Bcl2high-v2 (red), Bcl2high-v4
Supplementary Figure 7: Screening of LD3 variants in CBPA11-v(1-3) and raw data of CBPA11-v(1,3) with LD3-v3 variant. a-c) Screening of LD3 and LD3-v(1-3) variants in complex with BclXL for more sensitive CBPA11-v1 (a), CBPA11-v2 (b), CBPA11-v3 (c) in the GEMS platform. The LD3 variants replaced the role of LD3 (PSV40-IgK-BclXL-LD3-v(1-3)-EpoRm-IL-6RBm-pA) in one EpoR chain and BclXLhigh-v(1-3) in the other EpoR chain (PSV40-IgK-BclXLhigh-V(1-3)-EpoRm-IL-6RBm-pA). HEK293T cells were transfected with […]

[1] = SuppFigure 9a, BclXL, A-1155463 3.16 nM
[2] = SuppFigure 9a, BclXL, A-1155463 100 nM
[3] = SuppFigure 9a, BclXL, A-1155463 316 nM
[4] = SuppFigure 9a, BclXL, A-1155463 1000 nM
[5] = SuppFigure 9a, BclXL, A-1155463 3160 nM
[6] = SuppFigure 9a, BclXL, A-1155463 10000 nM
[7] = SuppFigure 9b, BclXL-v1, A-1155463 1 nM
[8] = SuppFigure 9b, BclXL-v1, A-1155463 3.16 nM
[9] = SuppFigure 9b, BclXL-v1, A-1155463 10 nM
[10] = SuppFigure 9b, BclXL-v1, A-1155463 31.6 nM
[11] = SuppFigure 9b, BclXL-v1, A-1155463 100 nM
[12] = SuppFigure 9b, BclXL-v1, A-1155463 316 nM
[13] = SuppFigure 9b, BclXL-v1, A-1155463 1000 nM
[14] = SuppFigure 9b, BclXL-v1, A-1155463 3160 nM
[15] = SuppFigure 9b, BclXL-v1, A-1155463 10000 nM
[16] = SuppFigure 9b, BclXL-v2, A-1155463 1 nM
[17] = SuppFigure 9b, BclXL-v2, A-1155463 3.16 nM
[18] = SuppFigure 9b, BclXL-v2, A-1155463 10 nM
[19] = SuppFigure 9b, BclXL-v2, A-1155463 31.6 nM
[20] = SuppFigure 9b, BclXL-v2, A-1155463 100 nM
[21] = SuppFigure 9b, BclXL-v2, A-1155463 316 nM
[22] = SuppFigure 9b, BclXL-v2, A-1155463 1000 nM
[23] = SuppFigure 9b, BclXL-v2, A-1155463 3160 nM

Which “Normalized data (SEAP)” value [1] does the source give for `CN(C)CC#Cc1ccc(OCCCc2sc(N3CCc4cccc(C(=O)Nc5nc6ccccc6s5)c4C3)nc2C(=O)O)c(F)c1` [A-1155463] here?
Its value is 6.043.

What about the “Raw data (SEAP)” value [1] of the same molecule?
Its value is 25.9846.

And the “Normalized data (SEAP)” value [2]?
The value was 100.

And the “Raw data (SEAP)” value [2]?
The value was 429.99.

What about the “Normalized data (SEAP)” value [3] of the same molecule?
The value was 92.0518.

And the “Raw data (SEAP)” value [3]?
The value was 395.813.

And the “Normalized data (SEAP)” value [4]?
Its value is 64.9807.

What about the “Raw data (SEAP)” value [4] of the same molecule?
Its value is 279.41.

And the “Normalized data (SEAP)” value [5]?
Its value is 59.757.

And the “Raw data (SEAP)” value [5]?
Its value is 256.949.

And the “Normalized data (SEAP)” value [6]?
The value was 20.582.

What about the “Raw data (SEAP)” value [6] of the same molecule?
The value was 88.5006.

And the “Normalized data (SEAP)” value [7]?
Its value is 29.2402.

What about the “Raw data (SEAP)” value [7] of the same molecule?
Its value is 3.306.

And the “Normalized data (SEAP)” value [8]?
Its value is 25.4197.

What about the “Raw data (SEAP)” value [8] of the same molecule?
Its value is 2.874.

What about the “Normalized data (SEAP)” value [9] of the same molecule?
The value was 91.2564.

What about the “Raw data (SEAP)” value [9] of the same molecule?
Its value is 10.3177.

What about the “Normalized data (SEAP)” value [10] of the same molecule?
The value was 99.5447.

What about the “Raw data (SEAP)” value [10] of the same molecule?
The value was 11.2548.

What about the “Normalized data (SEAP)” value [11] of the same molecule?
Its value is 88.866.

What about the “Raw data (SEAP)” value [11] of the same molecule?
The value was 10.0475.

And the “Normalized data (SEAP)” value [12]?
Its value is 80.3713.

And the “Raw data (SEAP)” value [12]?
The value was 9.087.

And the “Normalized data (SEAP)” value [13]?
Its value is 71.8768.

And the “Raw data (SEAP)” value [13]?
Its value is 8.127.

What about the “Normalized data (SEAP)” value [14] of the same molecule?
The value was 100.

What about the “Raw data (SEAP)” value [14] of the same molecule?
Its value is 11.3063.

What about the “Normalized data (SEAP)” value [15] of the same molecule?
The value was 93.1986.

What about the “Raw data (SEAP)” value [15] of the same molecule?
Its value is 10.5373.

And the “Normalized data (SEAP)” value [16]?
The value was 14.254.

And the “Raw data (SEAP)” value [16]?
Its value is 6.039.

What about the “Normalized data (SEAP)” value [17] of the same molecule?
The value was 18.0852.

What about the “Raw data (SEAP)” value [17] of the same molecule?
The value was 7.662.

And the “Normalized data (SEAP)” value [18]?
Its value is 44.9661.

And the “Raw data (SEAP)” value [18]?
The value was 19.0516.

And the “Normalized data (SEAP)” value [19]?
Its value is 70.6852.

And the “Raw data (SEAP)” value [19]?
Its value is 29.9485.

And the “Normalized data (SEAP)” value [20]?
Its value is 100.

And the “Raw data (SEAP)” value [20]?
Its value is 42.3689.

And the “Normalized data (SEAP)” value [21]?
The value was 44.6168.

What about the “Raw data (SEAP)” value [21] of the same molecule?
Its value is 18.9036.

And the “Normalized data (SEAP)” value [22]?
The value was 22.2068.

What about the “Raw data (SEAP)” value [22] of the same molecule?
The value was 9.409.

And the “Normalized data (SEAP)” value [23]?
The value was 14.8235.

And the “Raw data (SEAP)” value [23]?
Its value is 6.281.

And the “Normalized data (SEAP)” value (SuppFigure 9b, BclXL-v2, A-1155463 10000 nM)?
Its value is 14.5729.
